Columns and labels:
[1] = biological target: T1, Egl nine homolog 1 (Homo sapiens, UniProt Q9GZT9); test: Inhibition of FLAG-tagged full length PHD2 (unknown origin) expressed in Sf9 cells using HIF-1alpha peptide as substrate preincubated for 30 mins followed by substrate addition measured after 2 hrs by HTRF assay in presence of 2-oxoglutarate
Target sequence in this assay (Q9GZT9 whole entry): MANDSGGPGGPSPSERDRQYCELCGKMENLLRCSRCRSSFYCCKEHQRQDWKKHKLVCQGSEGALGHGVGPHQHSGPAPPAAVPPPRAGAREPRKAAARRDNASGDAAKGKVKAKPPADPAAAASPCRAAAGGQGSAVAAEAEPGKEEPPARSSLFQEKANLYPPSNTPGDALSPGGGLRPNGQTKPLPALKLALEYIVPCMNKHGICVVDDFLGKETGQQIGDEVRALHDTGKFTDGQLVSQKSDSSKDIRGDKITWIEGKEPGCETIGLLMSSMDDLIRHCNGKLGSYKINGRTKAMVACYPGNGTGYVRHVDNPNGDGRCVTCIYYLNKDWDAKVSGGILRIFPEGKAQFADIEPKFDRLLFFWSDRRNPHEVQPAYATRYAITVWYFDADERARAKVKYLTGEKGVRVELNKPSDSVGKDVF

[2] = biological target: T2, Prolyl hydroxylase EGLN3 (Homo sapiens, UniProt Q9H6Z9); test: Inhibition of 6His-tagged PHD3 (1 to 239) (unknown origin)-mediated Cy5CODD hydroxylation expressed in Escherichia coli preincubated for 3 mins followed by substrate addition measured after 30 mins
[3] = biological target: T2, Prolyl hydroxylase EGLN3; test: Inhibition of PHD3 in human Hep3B cells assessed as stimulation of EPO release after 48 hrs by ELISA; format: cell-based, Hep 3B2
[4] = biological target: T1, Egl nine homolog 1; test: Inhibition of PHD2 (unknown origin) using P564 HIFlalpha as substrate after 1 hr by TR-FRET assay
Target sequence in this assay (Q9GZT9 whole entry): as above

[5] = species on record: Homo sapiens; test: Inhibition of prolyl hydroxylase (unknown origin) assessed as stimulation of EPO release by cell-based assay
[6] = biological target: T1, Egl nine homolog 1; test: Inhibition of PHD2 (unknown origin)
Target sequence in this assay (Q9GZT9 whole entry): as above

[7] = tested on: Homo sapiens; test: Antianemic activity in human assessed as change in hemoglobin level administered thrice weekly for 12 weeks; format: functional
[8] = tested on: Homo sapiens; test: Reduction in total cholesterol level in chronic kidney disease patient administered for 16 to 24 weeks relative to control; format: functional; design: scale not given: the % may be the effect or the level left
[9] = tested on: Homo sapiens; test: Antianemic activity in nondialysis chronic kidney disease patient assessed as increase in hemoglobin level at 60 to 150 mg administered twice/thrice weekly for 16 to 24 weeks; format: functional
[10] = tested on: Homo sapiens; test: Antianemic activity in end stage renal disease patient receiving hemodialysis assessed as increase in hemoglobin level at 1.5 to 2 mg/kg, po administered thrice weekly for 6 weeks relative to control; format: functional; details: dose mg/kg 1.5-2
[11] = tested on: Homo sapiens; test: Antianemic activity in chronic kidney disease patient assessed as hemoglobin level administered for 4 weeks; format: functional
[12] = Inhibition of prolyl hydroxylase in human Hep3B cells assessed as stimulation of EPO release at 100 uM after 24 hrs by ELISA relative to control; format: cell-based, Hep 3B2
[13] = tested on: Hep 3B2; test: Inhibition of prolyl hydroxylase in human Hep3B cells assessed as stimulation of EPO release at 100 uM after 24 hrs relative to control; format: cell-based; design: scale not given: the % may be the effect or the level left
[14] = Inhibition of prolyl hydroxylase (unknown origin) using biotin-labeled DLDLEMLAPYIPMDDDFQL as substrate after 60 mins by FRET assay; design: species or system Homo sapiens
[15] = biological target: T2, Prolyl hydroxylase EGLN3; test: Inhibition of 6His-tagged PHD3 (1 to 239) (unknown origin)-mediated Cy5CODD hydroxylation expressed in Escherichia coli after 30 mins
[16] = tested on: Homo sapiens; test: Antianemic activity in chronic kidney disease patient assessed as increase in hemoglobin level at 6 to 20 mg/kg administered twice weekly for 4 weeks relative to control; format: functional; details: dose mg/kg 6-20
[17] = tested on: Homo sapiens; test: Antianemic activity in chronic kidney disease patient assessed as increase in hemoglobin level at 1250 mg, po administered twice weekly for 15 weeks (reference value: 0.2 g/dl); format: functional
[18] = tested on: Homo sapiens; test: Antianemic activity in chronic kidney disease patient assessed as increase in hemoglobin level at 625 mg, po administered twice weekly for 15 weeks (reference value: 0.2 g/dl); format: functional
[19] = tested on: Homo sapiens; test: Antianemic activity in chronic kidney disease patient assessed as increase in hemoglobin level at 375 mg, po administered twice weekly for 15 weeks (reference value: 0.2 g/dl); format: functional
[20] = tested on: Homo sapiens; test: Antianemic activity in chronic kidney disease patient assessed as increase in hemoglobin level at 1250 mg, po administered twice weekly for 15 weeks measured after 4 weeks relative to control; format: functional
[21] = tested on: Homo sapiens; test: Antianemic activity in chronic kidney disease patient assessed as increase in hemoglobin level at 625 mg, po administered twice weekly for 15 weeks measured after 4 weeks relative to control; format: functional
[22] = tested on: Homo sapiens; test: Antianemic activity in chronic kidney disease patient assessed as increase in hemoglobin level at 375 mg, po administered twice weekly for 15 weeks measured after 4 weeks relative to control; format: functional
[23] = tested on: Homo sapiens; test: Increase in plasma EPO level in human at 20 mg/kg, po administered for 7 days relative to control; format: functional
[24] = tested on: Homo sapiens; test: Increase in plasma EPO level in anephric end stage renal disease patient at 20 mg/kg, po administered for 7 days relative to control; format: functional
[25] = tested on: Homo sapiens; test: Increase in plasma EPO level in nephric end stage renal disease patient at 20 mg/kg, po administered for 7 days relative to control; format: functional
[26] = tested on: Homo sapiens; test: Antianemic activity in chronic kidney disease patient assessed as increase in hemoglobin level at 20 mg/kg, po administered 3 times per week for 4 weeks (reference value: 0.35 g/dL); format: functional
[27] = biological target: T1, Egl nine homolog 1; test: Inhibition of HIF-PH2 (unknown origin) expressed in insect Hi5 cells using [methoxycoumarin]-DLDLEALAPYIPADDDFQL-amide as substrate at 7.4 uM by [14]CO2 capture assay relative to control; details: BTI-TN-5B1-4
Target sequence in this assay (Q9GZT9 2-426 limits assumed): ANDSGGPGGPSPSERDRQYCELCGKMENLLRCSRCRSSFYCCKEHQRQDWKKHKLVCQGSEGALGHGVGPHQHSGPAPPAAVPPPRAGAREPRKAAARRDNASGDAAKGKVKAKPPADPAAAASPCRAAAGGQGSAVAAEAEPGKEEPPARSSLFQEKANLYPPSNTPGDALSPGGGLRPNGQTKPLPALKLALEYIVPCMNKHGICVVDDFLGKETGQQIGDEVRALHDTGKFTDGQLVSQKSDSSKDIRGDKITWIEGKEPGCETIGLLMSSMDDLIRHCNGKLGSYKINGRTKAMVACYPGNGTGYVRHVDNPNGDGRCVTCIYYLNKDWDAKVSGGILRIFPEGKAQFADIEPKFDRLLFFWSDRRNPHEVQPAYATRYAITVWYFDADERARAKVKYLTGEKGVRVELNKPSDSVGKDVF

[28] = biological target: T1, Egl nine homolog 1; test: Inhibition of HIF-PH2 (unknown origin) expressed in insect Hi5 cells using [methoxycoumarin]-DLDLEALAPYIPADDDFQL-amide as substrate at 22.2 uM by [14]CO2 capture assay relative to control; details: BTI-TN-5B1-4
Target sequence in this assay (Q9GZT9 2-426 limits assumed): as above

[29] = tested on: Mus musculus; test: Suppression of TNBS-induced colitis in mouse assessed as increase in hematocrit at 1 to 5 mg/kg, po after 7 days relative to control; format: functional; details: dose mg/kg 1-5
[30] = biological target: T1, Egl nine homolog 1; test: Inhibition of PHD2 in HEK293 cells assessed as VEGF release by immunoassay; format: cell-based
Target sequence in this assay (Q9GZT9 whole entry): as the sequence (Q9GZT9 whole entry) above

[31] = biological target: T2, Prolyl hydroxylase EGLN3; test: Inhibition of full length human recombinant EGLN-3 using DLDLEALAPYIPADDDFQL as substrate after 20 mins by mass spectrophotometric analysis
[32] = biological target: T1, Egl nine homolog 1; test: Inhibition of human recombinant EGLN-1 using DLDLEALAPYIPADDDFQL as substrate after 20 mins by mass spectrophotometric analysis
Target sequence in this assay (Q9GZT9 whole entry): as above

[33] = Inhibition of human CPH2 assessed as 2-Oxoglutarate conversion to succinic acid after 1 hr by radiometric HPLC analysis
[34] = Inhibition of human CPH1 assessed as 2-Oxoglutarate conversion to succinic acid after 1 hr by radiometric HPLC analysis
[35] = biological target: T1, Egl nine homolog 1; test: Inhibition of HIF-PH2 (unknown origin) expressed in insect Hi5 cells using [methoxycoumarin]-DLDLEALAPYIPADDDFQL-amide as substrate at 22 uM by [14]CO2 capture assay relative to control; details: BTI-TN-5B1-4
Target sequence in this assay (Q9GZT9 2-426 limits assumed): as the sequence (Q9GZT9 2-426 limits assumed) above

T2 sequence (Q9H6Z9 whole entry): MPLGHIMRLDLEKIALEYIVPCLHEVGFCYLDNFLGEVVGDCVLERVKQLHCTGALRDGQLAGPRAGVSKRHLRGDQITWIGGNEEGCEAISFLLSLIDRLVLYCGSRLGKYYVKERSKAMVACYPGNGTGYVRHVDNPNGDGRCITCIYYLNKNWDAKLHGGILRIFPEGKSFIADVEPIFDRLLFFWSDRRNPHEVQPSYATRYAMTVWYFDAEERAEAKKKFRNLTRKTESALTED

Cc1cccc(CN2CCC3(CC2)C(=O)N(c2ccc(-c4ccccc4)cc2)c2ccc(C(=O)O)cc23)n1
IC50 [1]: 0.7 nM

O=C(O)CNC(=O)c1c(O)c2c(n(CC3Cc4ccccc4C3)c1=O)COC2
IC50 [1]: < 10 nM

COc1ccc(-n2c(=S)[nH]c3cc(C(=O)NCc4ccc(Cl)cc4)sc3c2=O)nc1OC
IC50 [2]: 1 nM | EC50 [3]: 1000 nM

O=C(O)CNC(=O)c1c(O)c(Br)cc2c1ncn2Cc1ccccc1
IC50 [2]: 1 nM

O=C(O)CCC(=O)C1=C(O)c2ccc(Cl)cc2C2(CCOCC2)C1=O
IC50 [4]: < 100 nM

O=C(O)c1cnn(-c2nc3cc(OC(F)(F)F)c(Cl)cc3[nH]2)c1
A50 [5]: 50 µM | IC50 [6]: 100 nM

Cc1nc(C(=O)NCC(=O)O)c(O)c2ccc(Oc3ccccc3)cc12 [ROXADUSTAT]
Activity [7]: 2.1 g/dL | Activity [8]: -20% | Activity [9]: 1.4 g/dL | Activity [10]: 1 g/dL | Activity [11]: 1 g/dL

O=C(O)CNC(=O)c1c2ncn(Cc3ccccc3)c2cc2c1ncn2Cc1ccccc1
IC50 [2]: 1 nM

O=C(O)CNC(=O)c1c(O)c2c(n(Cc3ccc(C(F)(F)F)cc3)c1=O)CSC2
IC50 [1]: < 10 nM

O=C(O)CNC(=O)c1c(O)c(C(=O)NCc2ccccc2)c(O)n(Cc2ccccc2)c1=O
EC50 [3]: 1 nM

O=C(O)CNC(=O)C1=C(O)c2ccccc2C1=O
IC50 [4]: 3 nM

O=C(O)CNC(=O)c1c(O)cc(-c2cc(F)cc(Cl)c2)c2ncnn12
EC50 [12]: 5900 nM

O=C(O)c1cnn(-c2nc(N3CCCC3)c3cc(Oc4ccc(Cl)cc4)ccc3n2)c1
Activity [13]: 96%

O=C(Cc1ccc2ccccc2c1)Nc1cnc(-n2cccn2)nc1O
IC50 [1]: 0.7 nM

Cn1c(=O)c(C(=O)NCC(=O)O)c(O)c2ccc(-c3cccnc3)nc21
IC50 [4]: < 50 nM

Cn1c(=O)c(C(=O)NCC(=O)O)c(O)c2sccc21
IC50 [4]: 3 nM

N#Cc1cn(-c2c[nH]n(-c3cc(N4CC(F)(F)C4)ncn3)c2=O)nn1
IC50 [14]: 70 nM

N#Cc1ccccc1Cn1c(=O)c(C(=O)NCC(=O)O)c(O)n(Cc2ccccc2)c1=O
EC50 [3]: 400 nM | IC50 [15]: 0.8 nM

O=C(O)CNC(=O)c1nc(Cl)c2ccccc2c1O
Activity [16]: 1.3 g/dL | Activity [17]: 2.4 g/dL | Activity [18]: 1.4 g/dL | Activity [19]: 1.1 g/dL | Activity [20]: 76% | Activity [21]: 60% | Activity [22]: 50% | fold change (FC) [23]: 12.7 | fold change (FC) [24]: 14.5 | fold change (FC) [25]: 30.8 | Activity [26]: 1.9 g/dL

O=C(O)CNC(=O)c1c(O)c2cc(Cl)cc(C#Cc3ccccc3)c2sc1=O
inhibition [27]: 99%

COc1ccc(-n2c(=O)[nH]c3cc(C(=O)NCc4ccc5c(c4)OCO5)sc3c2=O)nc1OC
IC50 [2]: 1 nM | EC50 [3]: 1000 nM

O=C(O)CNC(=O)c1c(O)c2c(n(Cc3ccc(C(F)(F)F)cc3)c1=O)CN(C(=O)C1CC1)C2
IC50 [1]: < 10 nM

O=C(O)CNC(=O)c1c(O)c2cc(-c3ccc(Oc4ccccc4)cc3)ccc2oc1=O
inhibition [27]: 100%

Cc1ccccc1-c1ccc2nc(-n3cc(C(=O)O)cn3)[nH]c(=O)c2c1
Activity [13]: 60%

O=C(O)CNC(=O)c1nc(-c2cn(Cc3ccccc3)nn2)c2snc(-c3ccc(Cl)cc3)c2c1O
inhibition [28]: 100%

O=c1c(-c2cccnc2)c[nH]n1-c1cc(N2CCCCC2)ncn1
IC50 [14]: < 30000 nM

O=C(O)CNC(=O)C1=C(O)c2ccc(Cl)cc2C2(CCOCC2)C1=O
IC50 [4]: < 100 nM

Cc1c(O)c(C(=O)NCC(=O)O)c(=O)n(Cc2ccccc2)c1C
EC50 [3]: > 10000 nM

CC(C)(C)OC(=O)N1CCN(Cc2ccn(Cc3ccc(Cl)cc3)c(=O)c2O)CC1 [IZILENDUSTAT]
Activity [29]: 2% | EC50 [30]: 17000 nM

O=C(O)CNC(=O)c1c(O)n2ccccc2nc1=O
EC50 [3]: > 10000 nM

O=C(O)CNC(=O)c1c(O)c(-c2cccnc2)cc2nccnc12
IC50 [2]: 1 nM | EC50 [3]: 100 nM

O=C(O)CNC(=O)c1ncc(-c2ccc3ccccc3c2)cc1O
IC50 [31]: 17 nM | IC50 [32]: 17 nM

Cn1c(=O)c(C(=O)NCC(=O)O)c(O)c2ccc(Br)cc21
IC50 [33]: 111 nM | IC50 [34]: 351 nM

O=C(O)CNC(=O)c1c(O)ccc2cc(-c3ccccc3)cnc12
IC50 [2]: 1 nM

CC(C)(C)c1ccc(Cn2nc(-c3ccc(Cl)cc3)c(O)c(C(=O)NCC(=O)O)c2=O)cc1
EC50 [3]: 400 nM | IC50 [15]: 0.8 nM

COc1ccc(-n2c(=O)[nH]c3cc(C(=O)NCc4ccc(Cl)cc4)ncc3c2=O)nc1OC
IC50 [2]: 1 nM | EC50 [3]: 1000 nM

O=C(O)CNC(=O)c1c(O)c2c(Cl)c(Cl)c(Cl)n2n(Cc2ccccc2)c1=O
inhibition [35]: 99%

O=C(O)CNC(=O)c1ccc(-c2ccc3ccccc3c2)cn1
IC50 [31]: > 500000 nM | IC50 [32]: > 500000 nM

O=C(O)CNC(=O)c1c(O)c(C(=O)NCc2ccccc2)cn(Cc2ccccc2)c1=O
EC50 [3]: 1 nM

O=C(O)CNC(=O)c1c(O)c2ccc(F)cc2n(Cc2ccccc2Cl)c1=O
IC50 [15]: 20 nM

COc1ccc(-n2c(=S)[nH]c3sc(C(=O)NCc4ccc(Cl)cc4)c(C)c3c2=O)nc1OC
IC50 [2]: 1 nM | EC50 [3]: 1000 nM

CC(C)(C)c1ccc(Cn2c(-c3c(Cl)cccc3Cl)nc(O)c(C(=O)NCC(=O)O)c2=O)cc1
EC50 [3]: 400 nM | IC50 [15]: 0.8 nM

Cn1c(=O)c(C(=O)CCC(=O)O)c(O)c2ccc(Br)cc21
IC50 [33]: 13000 nM
